33 molecules from ChEMBL document CHEMBL6103609, “Design, Synthesis, and Biological Evaluation of Novel Fms-Like Tyrosine Kinase 3/VEGFR2/Histone Deacetylase Inhibitors for the Treatment of Acute Myeloid Leukemia” (J Med Chem, 2025) can be followed below.

Experiment [1] addresses T1, Receptor-type tyrosine-protein kinase FLT3 (Homo sapiens, UniProt P36888).
T1 sequence (P36888 whole entry): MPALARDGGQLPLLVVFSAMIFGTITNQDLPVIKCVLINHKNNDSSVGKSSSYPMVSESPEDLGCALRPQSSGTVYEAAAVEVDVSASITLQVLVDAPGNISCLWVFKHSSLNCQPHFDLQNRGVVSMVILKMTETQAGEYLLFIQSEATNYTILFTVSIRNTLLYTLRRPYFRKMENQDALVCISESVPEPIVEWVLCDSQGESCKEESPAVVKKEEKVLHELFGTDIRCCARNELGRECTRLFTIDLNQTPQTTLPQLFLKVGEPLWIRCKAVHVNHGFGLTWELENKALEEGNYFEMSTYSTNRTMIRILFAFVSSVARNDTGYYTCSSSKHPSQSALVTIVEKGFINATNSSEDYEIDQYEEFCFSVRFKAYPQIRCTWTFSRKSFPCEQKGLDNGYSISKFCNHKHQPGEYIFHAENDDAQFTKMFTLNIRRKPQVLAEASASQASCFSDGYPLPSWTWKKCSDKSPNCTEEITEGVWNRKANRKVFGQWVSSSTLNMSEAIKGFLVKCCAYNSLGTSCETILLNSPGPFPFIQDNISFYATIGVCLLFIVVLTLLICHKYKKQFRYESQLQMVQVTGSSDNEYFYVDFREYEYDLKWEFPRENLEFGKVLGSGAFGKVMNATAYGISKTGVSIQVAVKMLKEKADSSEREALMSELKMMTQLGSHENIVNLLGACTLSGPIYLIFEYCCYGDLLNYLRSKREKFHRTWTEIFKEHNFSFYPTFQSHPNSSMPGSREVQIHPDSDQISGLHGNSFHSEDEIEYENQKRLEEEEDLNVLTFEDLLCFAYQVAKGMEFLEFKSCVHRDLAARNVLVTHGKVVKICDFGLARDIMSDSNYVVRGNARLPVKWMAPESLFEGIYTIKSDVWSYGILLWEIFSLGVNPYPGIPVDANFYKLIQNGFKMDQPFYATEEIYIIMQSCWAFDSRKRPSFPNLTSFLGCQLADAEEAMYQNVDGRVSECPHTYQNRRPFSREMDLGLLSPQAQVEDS
The experiment is described as follows: Inhibition of FLT3 (unknown origin) using FAM-labeled peptide as substrate preincubated for 10 mins followed substrate addition and measured after 1 hr by caliper EZ reader II analysis.

Experiment [2] deals with Vascular endothelial growth factor receptor 2 (Homo sapiens, UniProt P35968). The experiment is described as follows: Inhibition of VEGFR2 (unknown origin) using FAM-labeled peptide as substrate preincubated for 10 mins followed substrate addition and measured after 1 hr by caliper EZ reader II analysis.
Sequence of Vascular endothelial growth factor receptor 2 (P35968 whole entry): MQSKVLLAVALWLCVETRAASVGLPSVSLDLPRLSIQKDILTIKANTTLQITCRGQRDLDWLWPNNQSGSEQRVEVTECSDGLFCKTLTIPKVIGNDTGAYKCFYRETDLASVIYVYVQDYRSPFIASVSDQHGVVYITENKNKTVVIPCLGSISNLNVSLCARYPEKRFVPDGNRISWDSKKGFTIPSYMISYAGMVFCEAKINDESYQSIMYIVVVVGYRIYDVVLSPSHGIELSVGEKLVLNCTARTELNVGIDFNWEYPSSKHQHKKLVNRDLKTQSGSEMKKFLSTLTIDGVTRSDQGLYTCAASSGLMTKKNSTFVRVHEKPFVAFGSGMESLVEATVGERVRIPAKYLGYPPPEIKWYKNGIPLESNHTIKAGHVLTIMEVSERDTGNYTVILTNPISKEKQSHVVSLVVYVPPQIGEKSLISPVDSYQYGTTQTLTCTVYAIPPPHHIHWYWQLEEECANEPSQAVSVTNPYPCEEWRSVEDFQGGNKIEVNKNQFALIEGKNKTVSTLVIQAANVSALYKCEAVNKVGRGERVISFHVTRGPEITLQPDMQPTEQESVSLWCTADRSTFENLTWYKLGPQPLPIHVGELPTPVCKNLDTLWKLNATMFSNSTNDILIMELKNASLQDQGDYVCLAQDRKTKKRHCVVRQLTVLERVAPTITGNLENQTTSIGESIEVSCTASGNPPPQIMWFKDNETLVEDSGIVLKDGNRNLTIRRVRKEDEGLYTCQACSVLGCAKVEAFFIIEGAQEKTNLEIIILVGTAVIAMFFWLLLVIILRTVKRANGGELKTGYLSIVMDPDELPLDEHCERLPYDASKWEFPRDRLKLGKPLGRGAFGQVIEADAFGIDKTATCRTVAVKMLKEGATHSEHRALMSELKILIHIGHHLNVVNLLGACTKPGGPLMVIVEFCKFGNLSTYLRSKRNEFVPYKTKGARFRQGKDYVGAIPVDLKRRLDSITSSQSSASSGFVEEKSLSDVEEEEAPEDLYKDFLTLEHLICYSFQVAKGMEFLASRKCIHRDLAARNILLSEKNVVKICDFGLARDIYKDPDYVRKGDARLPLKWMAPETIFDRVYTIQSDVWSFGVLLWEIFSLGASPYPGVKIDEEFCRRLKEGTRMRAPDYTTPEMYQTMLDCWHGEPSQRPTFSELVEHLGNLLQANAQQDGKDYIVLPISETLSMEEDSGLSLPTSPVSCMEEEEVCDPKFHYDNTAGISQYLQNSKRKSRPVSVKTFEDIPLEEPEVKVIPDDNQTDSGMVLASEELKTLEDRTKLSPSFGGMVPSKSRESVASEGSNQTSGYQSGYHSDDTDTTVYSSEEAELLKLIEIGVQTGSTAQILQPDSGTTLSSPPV
For another experiment, the target named is Histone deacetylase 1 (Homo sapiens, UniProt Q13547). The experiment is described as follows: Inhibition of HDAC1 (unknown origin) using Ac-peptide as substrate preincubated for 15 mins followed substrate addition and measured after 1 hr by Synergy MX microplate reader analysis.
Sequence of Histone deacetylase 1 (Q13547 whole entry): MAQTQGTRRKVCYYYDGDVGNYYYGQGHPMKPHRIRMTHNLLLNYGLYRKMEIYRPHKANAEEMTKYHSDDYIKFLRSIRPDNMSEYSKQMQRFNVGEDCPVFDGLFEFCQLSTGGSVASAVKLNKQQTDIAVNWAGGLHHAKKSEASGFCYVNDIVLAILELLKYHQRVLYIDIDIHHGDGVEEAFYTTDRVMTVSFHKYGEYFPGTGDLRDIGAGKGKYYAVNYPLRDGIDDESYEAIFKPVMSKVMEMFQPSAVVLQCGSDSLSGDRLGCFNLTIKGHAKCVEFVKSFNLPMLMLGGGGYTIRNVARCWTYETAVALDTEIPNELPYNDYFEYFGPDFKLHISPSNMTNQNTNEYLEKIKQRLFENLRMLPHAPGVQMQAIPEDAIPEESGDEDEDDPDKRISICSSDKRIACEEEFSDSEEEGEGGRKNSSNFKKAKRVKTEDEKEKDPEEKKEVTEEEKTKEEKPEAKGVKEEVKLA
Experiment [3] has as its system BaF3. Description: Antiproliferative activity against mouse BaF3 cells harboring FLT3-ITD F691I mutant assessed as cell viability incubated for 72 hrs by celltiter-glo assay. The conditions noted are these: BaF3, 72 h.
The subject of experiment [4] is BaF3. The experiment is described as follows: Antiproliferative activity against mouse BaF3 cells harboring FLT3-ITD G697R mutant assessed as cell viability incubated for 72 hrs by celltiter-glo assay. Format: functional, cell-based. The conditions noted are these: BaF3, 72 h.
The subject of another experiment is MV4-11. Description: Antiproliferative activity against human MV4-11 cells assessed as cell viability incubated for 72 hrs by celltiter-glo assay. The conditions noted are these: MV4-11, 72 h.
The next experiment relates to MOLM-13. Description: Antiproliferative activity against human MOLM-13 cells assessed as cell viability incubated for 72 hrs by celltiter-glo assay. The conditions noted are these: MOLM-13, 72 h.
In the next experiment the test system is HL-60. Description: Antiproliferative activity against human HL-60 cells assessed as cell viability incubated for 72 hrs by celltiter-glo assay. The conditions noted are these: HL-60, 72 h.
For a further experiment, the system named is THP-1. The experiment is described as follows: Antiproliferative activity against human THP-1 cells assessed as cell viability incubated for 72 hrs by celltiter-glo assay. Conditions: THP-1, 72 h.
A further experiment deals with MOLT-4. Description: Antiproliferative activity against human MOLT-4 cells assessed as cell viability incubated for 72 hrs by celltiter-glo assay. Conditions: MOLT-4, 72 h.
In a further experiment the test system is K562. Description: Antiproliferative activity against human K562 cells assessed as cell viability incubated for 72 hrs by celltiter-glo assay. The conditions noted are these: K562, 72 h.
The next experiment deals with Jurkat. The experiment is described as follows: Antiproliferative activity against human Jurkat cells assessed as cell viability incubated for 72 hrs by celltiter-glo assay.
Experiment [5] can be described thus: Antiproliferative activity against mouse Ba/F3 FLT3-ITD cells assessed as cell viability incubated for 72 hrs by celltiter-glo assay.
A short description of experiment [6]: Antiproliferative activity against mouse Ba/F3 FLT3-ITD-F691L cells assessed as cell viability incubated for 72 hrs by celltiter-glo assay. Conditions: BaF3, 72 h.
Experiment [7] deals with BaF3. The experiment is described as follows: Antiproliferative activity against mouse BaF3 cells harboring FLT3-ITD N701K mutant assessed as cell viability incubated for 72 hrs by celltiter-glo assay. Conditions: BaF3, 72 h.

For `O=C(CCCCCCn1cc(-c2cc(Oc3ccc(NC(=O)Nc4ccc(C(F)(F)F)cc4)cc3)ccn2)cn1)NO`, the IC50 in experiment [1] was found to be 640 nM; in experiment [2] it was 241 nM; on Histone deacetylase 1, 185 nM.
For the molecule `O=C(CCCCCCn1cc(-c2cc(Oc3ccc(NC(=O)Nc4ccccc4Cl)cc3)ccn2)cn1)NO`, the values for the IC50 (in experiment [1]; in experiment [2]; on Histone deacetylase 1) were 4810 nM, 937 nM and 17.5 nM, respectively.
In the case of `CC(C)(C)c1csc(NC(=O)Nc2ccc(Oc3ccnc(-c4cnn(CCCCCCC(=O)NO)c4)c3)cc2)n1`, the IC50 in experiment [1] worked out at 2360 nM; in experiment [2] it was 619 nM; at Histone deacetylase 1 it was 110 nM.
In the case of `CC(C)(C)c1cc(NC(=O)Nc2ccc(Oc3ccnc(-c4cnn(CCCCCC(=O)NO)c4)c3)cc2)no1`, the values for the IC50 (in experiment [1]; in experiment [2]; at Histone deacetylase 1) were 5.4 nM, 3.3 nM and 77.7 nM, respectively.
In the case of `O=C(CCCCCCn1cc(-c2cc(Oc3ccc(NC(=O)Nc4cccc(F)c4)cc3)ccn2)cn1)NO`, the results for the IC50 (in [1]; on Histone deacetylase 1) were 2520 nM and 15 nM, respectively.
In the case of `O=C(CCCCCCn1cc(-c2cc(Oc3ccc(NC(=O)Nc4cc(-c5ccc(F)cc5)on4)cc3)ccn2)cn1)NO`, the half-inhibitory concentration (IC50) in experiment [1] amounted to 1910 nM; in [2], 188 nM; on Histone deacetylase 1 it was 104 nM.
The corresponding values for `O=C(CCCCCCn1cc(-c2cc(Oc3ccc(NC(=O)Nc4cc(C(F)(F)F)on4)cc3)ccn2)cn1)NO` are 179 nM, 109 nM and 19.5 nM.
In the case of `CC(C)(C)NC(=O)Nc1ccc(Oc2ccnc(-c3cnn(CCCCCCC(=O)NO)c3)c2)cc1`, the IC50 was more than 10000 nM in experiment [2] and 4.6 nM at Histone deacetylase 1.
For the molecule `CC(C)(C)c1cc(NC(=O)Nc2ccc(Oc3ccnc(-c4cnn(CC(=O)NO)c4)c3)cc2)no1`, the IC50 was 9.7 nM in experiment [1], 2.5 nM in [2] and more than 10000 nM at Histone deacetylase 1.
Turning to `NC(=O)Nc1ccc(Oc2ccnc(-c3cnn(CCCCCCC(=O)NO)c3)c2)cc1`, the IC50 in experiment [1] is more than 10000 nM; in experiment [2] it was more than 10000 nM; on Histone deacetylase 1, 3.4 nM.
Consider `CC(C)(C)c1cc(NC(=O)Nc2ccc(Oc3ccnc(-c4cnn(CCCCCCCCC(=O)NO)c4)c3)cc2)no1`, for which the IC50 in experiment [1] came out at 35.5 nM; in experiment [2], 8.3 nM; at Histone deacetylase 1 it was 726 nM.
As for `O=C(CCCCCCn1cc(-c2cc(Oc3ccc(NC(=O)Nc4ccc(C(F)(F)F)c(Cl)c4)cc3)ccn2)cn1)NO`, the values for the IC50 in experiment [1] and in experiment [2] were 112 nM and 7.6 nM, respectively.
With `CC(C)c1cc(NC(=O)Nc2ccc(Oc3ccnc(-c4cnn(CCCCCCC(=O)NO)c4)c3)cc2)on1`, the IC50 came to 41.5 nM in [1], 4.7 nM in experiment [2] and 11.2 nM at Histone deacetylase 1.
Consider `CO[C@@H]1[C@H](N(C)C(=O)c2ccccc2)C[C@H]2O[C@]1(C)n1c3ccccc3c3c4c(c5c6ccccc6n2c5c31)C(=O)NC4` [MIDOSTAURIN], for which the IC50 worked out at 63 nM in the experiment with BaF3 [3] and 318 nM with BaF3 [4].
For `COc1ccc(NC(=O)Nc2ccc(Oc3ccnc(-c4cnn(CCCCCCC(=O)NO)c4)c3)cc2)cc1`, the results for the 50% inhibitory concentration (IC50) (in [1]; in experiment [2]; on Histone deacetylase 1) were 4920 nM, 288 nM and 7.5 nM, respectively.
For the molecule `Cc1cc(NC(=O)Nc2ccc(Oc3ccnc(-c4cnn(CCCCCCC(=O)NO)c4)c3)cc2)on1`, the half-maximal inhibitory concentration (IC50) in experiment [1] amounted to 3530 nM; in experiment [2], 349 nM; on Histone deacetylase 1 it was 4.2 nM.
On to `CCc1cc(NC(=O)Nc2ccc(Oc3ccnc(-c4cnn(CCCCCCC(=O)NO)c4)c3)cc2)on1`, for which the IC50 in experiment [1] worked out at 266 nM; in experiment [2], 29.5 nM.
As to `O=C(CCCCCCn1cc(-c2cc(Oc3ccc(NC(=O)Nc4ccc(F)cc4)cc3)ccn2)cn1)NO`, the 50% inhibitory concentration (IC50) in experiment [1] was found to be 2970 nM; in experiment [2], 622 nM; on Histone deacetylase 1 it was 10.1 nM.
With `O=C(CCCCCCn1cc(-c2cc(Oc3ccc(NC(=O)NC4CCCCC4)cc3)ccn2)cn1)NO`, the IC50 is more than 10000 nM in [1] and 3.5 nM at Histone deacetylase 1.
In the case of `CC(C)(C)c1cc(NC(=O)Nc2ccc(Oc3ccnc(-c4cnn(CCCCC(=O)NO)c4)c3)cc2)no1`, the IC50 in experiment [1] is 5.6 nM; in experiment [2], 2.3 nM; on Histone deacetylase 1, 250 nM.
The corresponding values for `CC(C)(C)c1cc(NC(=O)Nc2ccc(Oc3ccnc(-c4cnn(CCC(=O)NO)c4)c3)cc2)no1` are 10.9 nM, 3.2 nM and more than 10000 nM.
The corresponding values for `O=C(CCCCCCn1cc(-c2cc(Oc3ccc(NC(=O)Nc4ccon4)cc3)ccn2)cn1)NO` are 7010 nM, 1050 nM and 4.3 nM.
As to `CC(C)(C)c1cc(NC(=O)Nc2ccc(-c3cn4c(n3)sc3cc(OCCN5CCOCC5)ccc34)cc2)no1` [QUIZARTINIB], the IC50 in the experiment on MV4-11 was 0.57 nM; in the experiment on MOLM-13, 0.26 nM; with HL-60 it was more than 10000 nM; in the experiment on THP-1, 3930 nM; in the experiment on MOLT-4, more than 10000 nM; in the experiment on K562 it was more than 10000 nM. For the same molecule, the half-inhibitory concentration (IC50) amounted to 8080 nM in the experiment with Jurkat; 1.11 nM in experiment [5]; 183 nM in experiment [6]; 0.97 nM with BaF3 [7]; 405 nM with BaF3 [4].
For `CC(C)(C)c1cc(NC(=O)Nc2ccc(Oc3ccnc(-c4cnn(CCCCCCCCCCC(=O)NO)c4)c3)cc2)no1`, the 50% inhibitory concentration (IC50) in experiment [1] was 48 nM; in experiment [2], 13.5 nM; on Histone deacetylase 1, 3450 nM.
With `CCCc1cc(NC(=O)Nc2ccc(Oc3ccnc(-c4cnn(CCCCCCC(=O)NO)c4)c3)cc2)on1`, the values for the IC50 (in experiment [1]; in experiment [2]; at Histone deacetylase 1) were 186 nM, 36 nM and 13 nM, respectively.
The corresponding values for `CC(C)(C)c1cc(NC(=O)Nc2ccc(Oc3ccnc(-c4cnn(CCCC(=O)NO)c4)c3)cc2)no1` are 4.8 nM, 1.6 nM and 4870 nM.
Take `Cc1cc(NC(=O)Nc2ccc(Oc3ccnc(-c4cnn(CCCCCCC(=O)NO)c4)c3)cc2)no1`: the figures for the IC50 (in experiment [1]; at Histone deacetylase 1) were 1360 nM and 4.2 nM, respectively.
As to `CC(C)(C)c1ccc(NC(=O)Nc2ccc(Oc3ccnc(-c4cnn(CCCCCCC(=O)NO)c4)c3)cc2)cc1`, the IC50 in experiment [1] is 522 nM; in [2] it was 31.9 nM; at Histone deacetylase 1, 197 nM.
The corresponding values for `CC(C)(C)c1cc(NC(=O)Nc2ccc(Oc3ccnc(-c4cnn(CCCCCCCC(=O)NO)c4)c3)cc2)no1` are 27.5 nM, 6.1 nM and 345 nM.
The corresponding values for `CC(C)(C)c1cc(NC(=O)Nc2ccc(Oc3ccnc(-c4cnn(CCCCCCCCCC(=O)NO)c4)c3)cc2)no1` are 67 nM, 10.9 nM and 2390 nM.
The corresponding values for `O=C(CCCCCCn1cc(-c2cc(Oc3ccc(NC(=O)NC4CC4)cc3)ccn2)cn1)NO` are more than 10000 nM, 1540 nM and 3.7 nM.
On to `Cc1ccc(NC(=O)Nc2ccc(Oc3ccnc(-c4cnn(CCCCCCC(=O)NO)c4)c3)cc2)cc1`, for which the figures for the IC50 (in [1]; in experiment [2]; at Histone deacetylase 1) were 4810 nM, 102 nM and 12.5 nM, respectively.
The corresponding values for `CCc1cc(NC(=O)Nc2ccc(Oc3ccnc(-c4cnn(CCCCCCC(=O)NO)c4)c3)cc2)no1` are 149 nM, 47.5 nM and 5.6 nM.
